{
  "source": "patent US20060287316A1",
  "about": "“METHOD FOR IMPROVING PHARMACOKINETICS OF PROTEASE INHIBITORS AND PROTEASE INHIBITOR PRECURSORS” (priority 2005, published 2006)",
  "key": {"[1]": {"assay": "Cytotoxicity in the same cell culture system", "assay_type": "cell-based", "conditions": "human, MT4 cells", "method": "Cytotoxicity of PL-100 and other P is was evaluated in the same cell culture system. The selectivity index (SI) is the ratio of cytotoxicity (CC50) to antiviral activity (EC50). The selective index is similar to the therapeutic index but relates to in vitro studies."}, "[2]": {"system": "63 HIV isolates with reduced susceptibility to all approved protease inhibitors", "assay_type": "cell-based, HIV-1", "conditions": "for % viral strains with EC95s ≦ 200 ng/ml / % viral strains with EC95s ≦ 630 ng/ml: protein-binding adjusted EC95", "excerpt": "The cross-resistance profile of PL-100 against 63 HIV isolates with reduced susceptibility to all approved protease inhibitors (P is) including atazanavir was thus tested.\nThe panel of 63 viral strains was selected based on the following rationale: 1) High-level loss of susceptibility to specific P is; 2) High-level loss of susceptibility to multiple P is; 3) Good representation of the primary mutations. This panel consists of resistant viruses from highly PI-experienced patients with high-level PI resistance.\nThe genotype of these viruses encompasses a wide variety of mutational patterns. We particularly looked for the following primary PI mutations: D30N, L33F/I, M461/L, G48V, I50L/V, V82A/F/S/T, I84V and L90M as defined by the International AIDS Society (IAS)-USA.\nThe dark cells indicate a […], the grey cells indicate FC values of 2.5≦FC<10 and the white cells indicate a FC value of; 0≦FC<2.5. The results of cross-resistance profile are further illustrated in the graph of FIG. 1.\nIn the cross-resistance profiling studies against the 63 resistant strains mentioned herein, EC95 of PL-100 was determined against each strain. The median EC95 represents the concentration required to inhibit 95% of the viral replication of 50% diverse drug-resistant HIV-1 variants tested. Table 8 illustrates the percentage of resistant strains tested with protein-binding adjusted EC95s≦200 ng/ml. The resistant strains are grouped by the number of primary mutations they have.\nThe EC95 of PL-100 was determined against each of the 63 resistant strains indicated herein. Table 9 illustrates the percentage of resistant strains tested with protein-binding adjusted EC95s≦630 ng/ml. The resistant strains are grouped by the number of primary mutations they have."}, "[3]": {"conditions": "63 diverse, multi-PI-resistant strains"}, "[4]": {"conditions": "63 diverse, multi-PI-resistant strains, FC in IC50 vs NL-4.3"}, "[5]": {"conditions": "strains with 0 primary PI mutations"}, "[6]": {"conditions": "strains with 1 primary PI mutation"}, "[7]": {"conditions": "strains with 2 primary PI mutations"}, "[8]": {"conditions": "strains with 3 primary PI mutations"}, "[9]": {"conditions": "strains with 4 primary PI mutations"}, "[10]": {"conditions": "strains with 5-6 primary PI mutations"}},
  "note": "Where two headings read alike, the source gives them in different places.",
  "data": [
    {"smiles": "COC(=O)N[C@H](C(=O)NCCCC[C@@H](CO)N(CC(C)C)S(=O)(=O)c1ccc(N)cc1)C(c1ccccc1)c1ccccc1", "note": "[PL-100, (1S,5S)-(1-{5-[(4-amino-benzenesulfonyl)-isobutyl-amino]-6-hydroxy-hexylcarbamoyl}-2,2-diphenyl-ethyl)-carbamic acid methyl ester]", "values": [
      {"measurement": "CC50", "setting": "[1]", "result": 33, "unit": "µM"},
      {"measurement": "% FC < 2.5", "setting": "[2]; [3]", "result": 37, "unit": "%"},
      {"measurement": "% FC < 10", "setting": "[2]; [3]", "result": 76, "unit": "%"},
      {"measurement": "% FC > 50", "setting": "[2]; [3]", "result": 3, "unit": "%"},
      {"measurement": "Mean FC", "setting": "[2]; [4]", "result": 8.7},
      {"measurement": "Median FC", "setting": "[2]; [4]", "result": 3.6},
      {"measurement": "% viral strains with EC95s ≦ 200 ng/ml", "setting": "[2]; [5]", "result": 100, "unit": "%"},
      {"measurement": "% viral strains with EC95s ≦ 630 ng/ml", "setting": "[2]; [5]", "result": 100, "unit": "%"},
      {"measurement": "% viral strains with EC95s ≦ 200 ng/ml", "setting": "[2]; [6]", "result": 100, "unit": "%"},
      {"measurement": "% viral strains with EC95s ≦ 630 ng/ml", "setting": "[2]; [6]", "result": 100, "unit": "%"},
      {"measurement": "% viral strains with EC95s ≦ 200 ng/ml", "setting": "[2]; [7]", "result": 36, "unit": "%"},
      {"measurement": "% viral strains with EC95s ≦ 630 ng/ml", "setting": "[2]; [7]", "result": 82, "unit": "%"},
      {"measurement": "% viral strains with EC95s ≦ 200 ng/ml", "setting": "[2]; [8]", "result": 23, "unit": "%"},
      {"measurement": "% viral strains with EC95s ≦ 630 ng/ml", "setting": "[2]; [8]", "result": 55, "unit": "%"},
      {"measurement": "% viral strains with EC95s ≦ 200 ng/ml", "setting": "[2]; [9]", "result": 0, "unit": "%"},
      {"measurement": "% viral strains with EC95s ≦ 630 ng/ml", "setting": "[2]; [9]", "result": 29, "unit": "%"},
      {"measurement": "% viral strains with EC95s ≦ 200 ng/ml", "setting": "[2]; [10]", "result": 0, "unit": "%"},
      {"measurement": "% viral strains with EC95s ≦ 630 ng/ml", "setting": "[2]; [10]", "result": 0, "unit": "%"},
      {"measurement": "Fold change in IC50 vs. Reference", "setting": "[2]; sample O3-129578, 46I/82T/84V, panel ID 11", "result": 1.2},
      {"measurement": "Fold change in IC50 vs. Reference", "setting": "[2]; sample O3-129585, 48V/54V/82A/90M, panel ID 26", "result": 1.9},
      {"measurement": "Fold change in IC50 vs. Reference", "setting": "[2]; sample O3-129586, 30N/88D/90M, panel ID 28", "result": 1.4},
      {"measurement": "Fold change in IC50 vs. Reference", "setting": "[2]; sample O3-148709 (non-B subtype), 32I/47A, panel ID 1", "result": 1.4},
      {"measurement": "Fold change in IC50 vs. Reference", "setting": "[2]; sample O3-1129583, 84V/90M, panel ID 21", "result": 2.3},
      {"measurement": "Fold change in IC50 vs. Reference", "setting": "[2]; sample O4-148712, 46I/88S, panel ID 122", "result": 0.8},
      {"measurement": "Fold change in IC50 vs. Reference", "setting": "[2]; sample O4-148712, 46I/88S, panel ID 124", "result": 1.1},
      {"measurement": "Fold change in IC50 vs. Reference", "setting": "[2]; sample O4-148713, 46I/88S, panel ID 123", "result": 0.4},
      {"measurement": "Fold change in IC50 vs. Reference", "setting": "[2]; sample O4-148716, 33F/54L/88S/90M, panel ID 10", "result": 1.7},
      {"measurement": "Fold change in IC50 vs. Reference", "setting": "[2]; sample O4-148721, 32I/46I/47V/50L, panel ID 127", "result": 1.1},
      {"measurement": "Fold change in IC50 vs. Reference", "setting": "[2]; sample O4-148725, 32I/46L/47V/84V, panel ID 53", "result": 0.6},
      {"measurement": "Fold change in IC50 vs. Reference", "setting": "[2]; sample O4-148739, 48V/54V/82A/90M, panel ID 138", "result": 1.1},
      {"measurement": "Fold change in IC50 vs. Reference", "setting": "[2]; sample O4-148742, 46L/48V/82A/84V, panel ID 94", "result": 1.2},
      {"measurement": "Fold change in IC50 vs. Reference", "setting": "[2]; sample O4-148748, 37S/41K/70E, panel ID 115", "result": 0.9},
      {"measurement": "Fold change in IC50 vs. Reference", "setting": "[2]; sample O4-148749, 37T/41K/70E, panel ID 151", "result": 1.9},
      {"measurement": "Fold change in IC50 vs. Reference", "setting": "[2]; sample O4-148751, 54V/84V, panel ID 171", "result": 0.8},
      {"measurement": "Fold change in IC50 vs. Reference", "setting": "[2]; sample O4-148752, 54V/84V, panel ID 152", "result": 1.2}
    ]}
  ]
}
